Legend:
[1] = Cytotoxicity against mouse RAW264.7 cells assessed as cell viability at 40 uM measured after 24 hrs by MTT assay relative to control; format: toxicity, cell-based; conditions: read-out: Activity
[2] = test system: RAW264.7; test: Anti inflammatory activity in LPS-induced mouse RAW264.7 cells assessed as inhibition of NO production at 5 uM preincubated with compound for 2 hrs followed by LPS stimulation and measured after 24 hrs by griess reagent based assay relative to control; format: functional; conditions: time 26 hrs
[3] = test system: RAW264.7; test: Anti inflammatory activity in LPS-induced mouse RAW264.7 cells assessed as inhibition of NO production at 2.5 uM preincubated with compound for 2 hrs followed by LPS stimulation and measured after 24 hrs by griess reagent based assay relative to control; format: functional; conditions: time 26 hrs
[4] = test system: RAW264.7; test: Anti inflammatory activity in LPS-induced mouse RAW264.7 cells assessed as inhibition of NO production preincubated with compound for 2 hrs followed by LPS stimulation and measured after 24 hrs by griess reagent based assay; format: functional, cell-based

With `CCN1CCN(C(=O)c2ccccc2C(=O)O[C@@H]2CC[C@@]3(C)[C@@H](CC[C@@]4(C)[C@H]3[C@H](O)C[C@H]3/C(=C(\CCC=C(C)C)C(=O)OCc5ccccc5)[C@@H](OC(C)=O)C[C@@]34C)[C@@H]2C)CC1` the viability at 24 h, 40 µM [1] was 5.62%.
`C=CCONC(=O)/C(CCC=C(C)C)=C1\[C@@H](OC(C)=O)C[C@@]2(C)[C@H]1C[C@@H](O)[C@H]1[C@@]3(C)CC[C@@H](O)[C@@H](C)[C@@H]3CC[C@@]12C` showed a viability at 24 h, 40 µM [1] of 90.8%, an inhibition at 5 µM [2] of 21.3% and an inhibition at 2.5 µM [3] of 17.7%.
Work on `CC(=O)O[C@H]1C[C@@]2(C)[C@@H](C[C@@H](O)[C@H]3[C@@]4(C)CC[C@@H](OC(=O)c5ccccc5C(=O)N5CCCCC5)[C@@H](C)[C@@H]4CC[C@@]32C)/C1=C(\CCC=C(C)C)C(=O)OCc1ccccc1` yielded a viability at 24 h, 40 µM [1] of 103%, an inhibition at 5 µM [2] of 30.8% and an IC50 [4] of 11.6 µM. For the same compound, the inhibition at 2.5 µM [3] was 16.9%.
Work on `CC(=O)O[C@H]1C[C@@]2(C)[C@@H](C[C@@H](O)[C@H]3[C@@]4(C)CC[C@@H](OC(=O)c5ccccc5C(=O)N5CCN(C)CC5)[C@@H](C)[C@@H]4CC[C@@]32C)/C1=C(\CCC=C(C)C)C(=O)OCc1ccccc1` yielded a viability at 24 h, 40 µM [1] of 108%, an inhibition at 5 µM [2] of 14.7% and an inhibition at 2.5 µM [3] of 8.43%.
Compound `CC(=O)O[C@H]1C[C@@]2(C)[C@@H](C[C@@H](O)[C@H]3[C@@]4(C)CC[C@@H](OC(=O)c5ccccc5C(=O)n5ccnc5)[C@@H](C)[C@@H]4CC[C@@]32C)/C1=C(\CCC=C(C)C)C(=O)OCc1ccccc1` has a viability at 24 h, 40 µM [1] of 59.5%.
For `CC(=O)O[C@H]1C[C@@]2(C)[C@@H](C[C@@H](O)[C@H]3[C@@]4(C)CC[C@@H](OC(=O)CCSSCCC(=O)NOC(C)(C)C)[C@@H](C)[C@@H]4CC[C@@]32C)/C1=C(\CCC=C(C)C)C(=O)OCc1ccccc1`, the viability at 24 h, 40 µM [1] was 76%.
For `CC(=O)O[C@H]1C[C@@]2(C)[C@@H](C[C@@H](O)[C@H]3[C@@]4(C)CC[C@@H](O)[C@@H](C)[C@@H]4CC[C@@]32C)/C1=C(\CCC=C(C)C)C(=O)NOC(=O)c1ccc([N+](=O)[O-])cc1`, the viability at 24 h, 40 µM [1] was 70.8%.
`CC(=O)O[C@H]1C[C@@]2(C)[C@@H](C[C@@H](O)[C@H]3[C@@]4(C)CC[C@@H](OC(=O)CCSSCCC(=O)NOC(=O)c5ccc([N+](=O)[O-])cc5)[C@@H](C)[C@@H]4CC[C@@]32C)/C1=C(\CCC=C(C)C)C(=O)OCc1ccccc1` gave a viability at 24 h, 40 µM [1] of 91%, an inhibition at 5 µM [2] of 44.8% and an IC50 [4] of 10 µM. It also gave an inhibition at 2.5 µM [3] of 33.3%.
For `CONC(=O)c1ccccc1C(=O)O[C@@H]1CC[C@@]2(C)[C@@H](CC[C@@]3(C)[C@H]2[C@H](O)C[C@H]2/C(=C(\CCC=C(C)C)C(=O)OCc4ccccc4)[C@@H](OC(C)=O)C[C@@]23C)[C@@H]1C`, the viability at 24 h, 40 µM [1] was 106%, the inhibition at 5 µM [2] was 27% and the inhibition at 2.5 µM [3] was 17.3%.
With `CON(C)C(=O)CCSSCCC(=O)O[C@@H]1CC[C@@]2(C)[C@@H](CC[C@@]3(C)[C@H]2[C@H](O)C[C@H]2/C(=C(\CCC=C(C)C)C(=O)OCc4ccccc4)[C@@H](OC(C)=O)C[C@@]23C)[C@@H]1C` the viability at 24 h, 40 µM [1] was 90.2%, the inhibition at 5 µM [2] was 59.3% and the IC50 [4] was 2.5 µM. It also gave an inhibition at 2.5 µM [3] of 54.6%.
Work on `CC(=O)O[C@H]1C[C@@]2(C)[C@@H](C[C@@H](O)[C@H]3[C@@]4(C)CC[C@@H](OC(=O)CCSSCCC(=O)NOCc5ccccc5)[C@@H](C)[C@@H]4CC[C@@]32C)/C1=C(\CCC=C(C)C)C(=O)OCc1ccccc1` yielded a viability at 24 h, 40 µM [1] of 98.4%, an inhibition at 5 µM [2] of 12.5% and an inhibition at 2.5 µM [3] of 8.17%.
In the case of `CC(=O)O[C@H]1C[C@@]2(C)[C@@H](C[C@@H](O)[C@H]3[C@@]4(C)CC[C@@H](O)[C@@H](C)[C@@H]4CC[C@@]32C)/C1=C(\CCC=C(C)C)C(=O)NOC(C)(C)C`, the viability at 24 h, 40 µM [1] is reported as 84.3%.
For `CON(C)C(=O)/C(CCC=C(C)C)=C1\[C@@H](OC(C)=O)C[C@@]2(C)[C@H]1C[C@@H](O)[C@H]1[C@@]3(C)CC[C@@H](O)[C@@H](C)[C@@H]3CC[C@@]12C`, the viability at 24 h, 40 µM [1] was 55.5%.
Work on `CC(=O)O[C@H]1C[C@@]2(C)[C@@H](C[C@@H](O)[C@H]3[C@@]4(C)CC[C@@H](OC(=O)CCSSCCC(=O)NOC5CCCCO5)[C@@H](C)[C@@H]4CC[C@@]32C)/C1=C(\CCC=C(C)C)C(=O)OCc1ccccc1` (some centres undefined) yielded a viability at 24 h, 40 µM [1] of 90.2%, an inhibition at 5 µM [2] of 65.2% and an IC50 [4] of 2.62 µM. For the same compound, the inhibition at 2.5 µM [3] was 55.2%.
For `CC(=O)O[C@H]1C[C@@]2(C)[C@@H](C[C@@H](O)[C@H]3[C@@]4(C)CC[C@@H](OC(=O)CCSSCCC(=O)N(C)O)[C@@H](C)[C@@H]4CC[C@@]32C)/C1=C(\CCC=C(C)C)C(=O)OCc1ccccc1`, the viability at 24 h, 40 µM [1] was 48.8%.
For `CC(=O)O[C@H]1C[C@@]2(C)[C@@H](C[C@@H](O)[C@H]3[C@@]4(C)CC[C@@H](OC(=O)c5ccccc5C(=O)NOC(C)(C)C)[C@@H](C)[C@@H]4CC[C@@]32C)/C1=C(\CCC=C(C)C)C(=O)OCc1ccccc1`, the viability at 24 h, 40 µM [1] was 98.3%, the inhibition at 5 µM [2] was 25.9% and the inhibition at 2.5 µM [3] was 13.5%.
In the case of `CC(=O)O[C@H]1C[C@@]2(C)[C@@H](C[C@@H](O)[C@H]3[C@@]4(C)CC[C@@H](O)[C@@H](C)[C@@H]4CC[C@@]32C)/C1=C(\CCC=C(C)C)C(=O)NOC1CCCCO1` (some centres undefined), the viability at 24 h, 40 µM [1] is reported as 2.83%.
With `CC(=O)O[C@H]1C[C@@]2(C)[C@@H](C[C@@H](O)[C@H]3[C@@]4(C)CC[C@@H](O)[C@@H](C)[C@@H]4CC[C@@]32C)/C1=C(\CCC=C(C)C)C(=O)O` [FUSIDIC ACID] the viability at 24 h, 40 µM [1] was 91.3%, the inhibition at 5 µM [2] was 14.9% and the inhibition at 2.5 µM [3] was 2.18%.
`CC(=O)O[C@H]1C[C@@]2(C)[C@@H](C[C@@H](O)[C@H]3[C@@]4(C)CC[C@@H](OC(=O)c5ccccc5C(=O)NOCc5ccccc5)[C@@H](C)[C@@H]4CC[C@@]32C)/C1=C(\CCC=C(C)C)C(=O)OCc1ccccc1` gave a viability at 24 h, 40 µM [1] of 96%, an inhibition at 5 µM [2] of 11% and an inhibition at 2.5 µM [3] of 8.93%.
Compound `CC(=O)O[C@H]1C[C@@]2(C)[C@@H](C[C@@H](O)[C@H]3[C@@]4(C)CC[C@@H](OC(=O)c5ccccc5C(=O)n5cccn5)[C@@H](C)[C@@H]4CC[C@@]32C)/C1=C(\CCC=C(C)C)C(=O)OCc1ccccc1` has a viability at 24 h, 40 µM [1] of 76.6%.
`CC(=O)O[C@H]1C[C@@]2(C)[C@@H](C[C@@H](O)[C@H]3[C@@]4(C)CC[C@@H](OC(=O)CCSSCCC(=O)NOc5ccc([N+](=O)[O-])cc5)[C@@H](C)[C@@H]4CC[C@@]32C)/C1=C(\CCC=C(C)C)C(=O)OCc1ccccc1` gave a viability at 24 h, 40 µM [1] of 103%, an inhibition at 5 µM [2] of 28.4% and an inhibition at 2.5 µM [3] of 14.9%.
For `C=CCONC(=O)c1ccccc1C(=O)O[C@@H]1CC[C@@]2(C)[C@@H](CC[C@@]3(C)[C@H]2[C@H](O)C[C@H]2/C(=C(\CCC=C(C)C)C(=O)OCc4ccccc4)[C@@H](OC(C)=O)C[C@@]23C)[C@@H]1C`, the viability at 24 h, 40 µM [1] was 101%, the inhibition at 5 µM [2] was 39.3% and the IC50 [4] was 8.92 µM. It also gave an inhibition at 2.5 µM [3] of 24.7%.
`CC(=O)O[C@H]1C[C@@]2(C)[C@@H](C[C@@H](O)[C@H]3[C@@]4(C)CC[C@@H](O)[C@@H](C)[C@@H]4CC[C@@]32C)/C1=C(\CCC=C(C)C)C(=O)NOCc1ccccc1` showed a viability at 24 h, 40 µM [1] of 0.07%.
Compound `CC(=O)O[C@H]1C[C@@]2(C)[C@@H](C[C@@H](O)[C@H]3[C@@]4(C)CC[C@@H](O)[C@@H](C)[C@@H]4CC[C@@]32C)/C1=C(\CCC=C(C)C)C(=O)NOc1ccc([N+](=O)[O-])cc1[N+](=O)[O-]` has a viability at 24 h, 40 µM [1] of 15.2%.
Compound `CC(=O)O[C@H]1C[C@@]2(C)[C@@H](C[C@@H](O)[C@H]3[C@@]4(C)CC[C@@H](O)[C@@H](C)[C@@H]4CC[C@@]32C)/C1=C(\CCC=C(C)C)C(=O)NOc1ccc([N+](=O)[O-])cc1` has a viability at 24 h, 40 µM [1] of 56.5%.
Compound `CC(=O)O[C@H]1C[C@@]2(C)[C@@H](C[C@@H](O)[C@H]3[C@@]4(C)CC[C@@H](OC(=O)c5ccccc5C(=O)NOc5ccc([N+](=O)[O-])cc5)[C@@H](C)[C@@H]4CC[C@@]32C)/C1=C(\CCC=C(C)C)C(=O)OCc1ccccc1` has a viability at 24 h, 40 µM [1] of 1.66%.
Work on `CC(=O)O[C@H]1C[C@@]2(C)[C@@H](C[C@@H](O)[C@H]3[C@@]4(C)CC[C@@H](OC(=O)c5ccccc5C(=O)N5CCOCC5)[C@@H](C)[C@@H]4CC[C@@]32C)/C1=C(\CCC=C(C)C)C(=O)OCc1ccccc1` yielded a viability at 24 h, 40 µM [1] of 102%, an inhibition at 5 µM [2] of 44.5% and an IC50 [4] of 7.61 µM. The inhibition at 2.5 µM [3] was 28.4%.
Work on `CONC(=O)CCSSCCC(=O)O[C@@H]1CC[C@@]2(C)[C@@H](CC[C@@]3(C)[C@H]2[C@H](O)C[C@H]2/C(=C(\CCC=C(C)C)C(=O)OCc4ccccc4)[C@@H](OC(C)=O)C[C@@]23C)[C@@H]1C` yielded a viability at 24 h, 40 µM [1] of 2.32%.
With `CC(=O)O[C@H]1C[C@@]2(C)[C@@H](C[C@@H](O)[C@H]3[C@@]4(C)CC[C@@H](OC(=O)c5ccccc5C(=O)NOC5CCCCO5)[C@@H](C)[C@@H]4CC[C@@]32C)/C1=C(\CCC=C(C)C)C(=O)OCc1ccccc1` (some centres undefined) the viability at 24 h, 40 µM [1] was 94.1%, the inhibition at 5 µM [2] was 19.4% and the inhibition at 2.5 µM [3] was 7.93%.
Compound `CON(C)C(=O)c1ccccc1C(=O)O[C@@H]1CC[C@@]2(C)[C@@H](CC[C@@]3(C)[C@H]2[C@H](O)C[C@H]2/C(=C(\CCC=C(C)C)C(=O)OCc4ccccc4)[C@@H](OC(C)=O)C[C@@]23C)[C@@H]1C` has a viability at 24 h, 40 µM [1] of 100%, an inhibition at 5 µM [2] of 44.5% and an IC50 [4] of 6.92 µM. For the same compound, the inhibition at 2.5 µM [3] was 24%.
With `O=C(Nc1ccc(I)cc1)c1ccc([N+](=O)[O-])o1` the IC50 [4] was 1.14 µM.
With `CONC(=O)/C(CCC=C(C)C)=C1\[C@@H](OC(C)=O)C[C@@]2(C)[C@H]1C[C@@H](O)[C@H]1[C@@]3(C)CC[C@@H](O)[C@@H](C)[C@@H]3CC[C@@]12C` the viability at 24 h, 40 µM [1] was 91.4%, the inhibition at 5 µM [2] was 18.3% and the inhibition at 2.5 µM [3] was 16.5%.
Work on `CC(=O)O[C@H]1C[C@@]2(C)[C@@H](C[C@@H](O)[C@H]3[C@@]4(C)CC[C@@H](OC(=O)CCSSCCC(=O)N(O)C5CCCCC5)[C@@H](C)[C@@H]4CC[C@@]32C)/C1=C(\CCC=C(C)C)C(=O)OCc1ccccc1` yielded a viability at 24 h, 40 µM [1] of 80.1%.

From ChEMBL document CHEMBL5247586, “Discovery of fusidic acid derivatives as novel STING inhibitors for treatment of sepsis” (Eur J Med Chem, 2022)
